One assay has as its system Alternaria brassicae. Description: Example C: in vivo test on Alternaria brassicae (leaf spot disease on radishes). The note with it: 500 ppm; radish plants sprayed 24 hours before inoculation; scored after 6-7 days. As to the method:
In Vivo Test on Alternaria Brassicae (Leaf Spot Disease on Radishes) An aqueous suspension of the active substance was prepared by homogenization of a mixture of acetone/Tween/dimethyl sulphoxide and subsequent dilution with water to the desired concentration. Radish plants (variety: Pernot) are sown in cultivation dishes on a peat-pozzolanic earth substrate (50/50) at 18-20° C. and sprayed at the cotyledon stage with the aqueous suspension described above. As a control, plants are sprayed with an aqueous solution with no active substance. After 24 hours, the plants are inoculated by spraying with an aqueous suspension of Alternaria brassicae spores (40,000 spores per ml). The spores are derived from a 12 to 13 day-old culture. The inoculated radish plants are incubated for 6-7 days at ca. 18° C. in a humid atmosphere. After 6-7 days they are scored in comparison with the control plants.

For a further assay, the system named is Botrytis cinerea. Description: Example P: in vivo test on Botrytis cinerea (gray mould on bean/protective). The note with it: 48 h, bean, protective, 250 ppm active substance, assessed 2 days after inoculation, read-out: % Wirkungsgrad (activity level). The method in brief:
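Infection blotch size on leaves was scored 2 days after placing 2 Botrytis-colonised agar pieces per leaf. Inoculation followed drying of a protective spray applied to young plants at the stated dosage. Spray was prepared by diluting compound with solvent and alkylaryl polyglycol ether emulsifier in water.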

The subject of the next assay is Puccinia recondita. Description: Example F: in vivo test on Puccinia recondita (wheat brown rust). The note with it: 240 h, wheat plants sprayed 24 hours before inoculation, scored after 10 days, read-out: % Wirkungsgrad. The method, then: In Vivo Test on Puccinia Recondita (Wheat Brown Rust) An aqueous suspension of the active substance was prepared by homogenization of a mixture of acetone/Tween/dimethyl sulphoxide and subsequent dilution with water to the desired concentration. Wheat plants (variety: Scipion) are sown in cultivation dishes on a peat-pozzolanic earth substrate (50/50) at 12° C. and sprayed at the first-leaf stage (10 cm size) with the aqueous suspension described above. As a control, plants are sprayed with an aqueous solution with no active substance. After 24 hours the plants are inoculated by spraying with an aqueous suspension of Puccinia recondita spores (100,000 spores per ml). The spores are derived from a 10 day-old infected wheat crop and are suspended in water with 2.5 ml/l Tween. […] After 10 days they are scored in comparison with the control plants.

In assay [1] the test system is Sphaerotheca fuliginea. Description: Example D: in vivo test on Sphaerotheca fuliginea (powdery mildew on cucumber). The note with it: Podosphaera fuliginea, 288 h, cucumber plants sprayed 24 hours before inoculation, scored after 12 days, read-out: % Wirkungsgrad. In a few lines:
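Scoring took place 12 days after spore inoculation (100,000 spores/ml, at ca. 20/25° C., 60/70% RH) and was made against plants sprayed without active substance. Inoculation followed by 24 hours a spray of water-diluted acetone/Tween/DMSO compound suspension onto Z10 cotyledon-stage cucumbers.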

For another assay, the system named is Septoria tritici. Description: Example R: in vivo test on Septoria tritici (leaf blotch in wheat/protective). The note with it: Zymoseptoria tritici, 504 h, wheat, protective, 1000 ppm active substance, assessed 21 days after inoculation, read-out: % Wirkungsgrad (activity level). In a few lines:
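Protective test: young wheat plants sprayed with compound in N,N-dimethylacetamide/alkylaryl polyglycol ether emulsifier diluted in water, dried, then inoculated with Septoria tritici spore suspension. Disease assessed 21 days after inoculation.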

The next assay concerns Phakopsora pachyrhizi. Description: Example Z: in vivo test on Phakopsora pachyrhizi (soya bean rust/protective). The note with it: soya bean rust, protective, 250 ppm active substance, assessed 11 days after inoculation.
The subject of assay [2] is Sphaerotheca fuliginea. Description: Example L: in vivo test on Sphaerotheca fuliginea (powdery mildew on cucumber/protective). The note with it: Podosphaera fuliginea, 168 h, cucumber, protective, assessment 7 days after inoculation, read-out: % Wirkungsgrad. In a few lines: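 Young cucumber plants sprayed at stated dosage with compound in DMF/alkylaryl polyglycol ether emulsifier diluted in water; inoculated with S. fuliginea spores one day later. Kept in greenhouse at 70% relative humidity, 23° C; protective activity assessed 7 days after inoculation.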

The test system of another assay is Fusarium graminearum. Description: microbe, parasite or virus in culture. Type of assay: cell-based.
The test system of a further assay is Rhynchosporium secalis. Description: Example S: in vivo test on Rhynchosporium secalis (leaf scald in barley/protective). The note with it: 336 h, barley, protective, 1000 ppm active substance, assessed 14 days after inoculation, read-out: % Wirkungsgrad (activity level). In a few lines: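 Protective test: young barley plants were sprayed with active substance in dimethylacetamide/alkylaryl polyglycol ether emulsion diluted with water. Once dry, plants were inoculated with R. secalis spore suspension. Assessment was made 14 days after inoculation.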

In assay [3] the test system is Mycosphaerella graminicola. Description: Example G: in vivo test on Mycosphaerella graminicola (wheat leaf blotch disease). The note with it: Zymoseptoria tritici, wheat plants sprayed 24 hours before inoculation, scored after 21 to 28 days, read-out: % Wirkungsgrad. In a few lines: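 Scipion wheat at first-leaf stage (10 cm) was sprayed with aqueous active-substance suspension, then inoculated 24 hours later with Mycosphaerella graminicola spores (500,000 spores per ml) from 7 day-old culture. Disease was scored after 21 to 28 days against untreated sprayed controls.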

Setting [4] is: 72 h, read-out: % Inhibition des Pilzwachstums bei 50 μM.
[5] abbreviates: 168 h, read-out: % Inhibition der DON/AcDON produktion bei 50 μM.

This is an account of results in patent US20110183978A1, “Phenylpyri(mi)dinylazoles” (Bayer CropScience AG, priority 2009, published 2011).

Each structure is given as a SMILES string. Where two headings read alike, the source gives them in different places.

As for `CC(C)Cn1cc(-c2ccncc2)c(-c2ccc(F)cc2)n1` [Compound 1], the “% Activity level” value came to 94% in the assay on Alternaria brassicae and 91% with Phakopsora pachyrhizi. In addition, in the assay on Botrytis cinerea, the pest or weed control at 250 ppm is 99%. For the same compound, the pest or weed control at 500 ppm is 89% with Puccinia recondita and 100% in the assay on Sphaerotheca fuliginea [1]. Moreover, the pest or weed control at 1000 ppm in the assay on Septoria tritici came to 100%.
As to `CC(C)C(=O)Nc1cc(-c2cn(C(C)C)nc2-c2ccc(F)cc2)ccn1` [Compound 84], the “% Activity level” value was determined as 75% in the assay on Alternaria brassicae and 98% in the assay with Phakopsora pachyrhizi. In addition, in the assay on Botrytis cinerea, the pest or weed control at 250 ppm stood at 99%. In addition, the pest or weed control at 500 ppm is 78% with Puccinia recondita, 100% in the assay on Sphaerotheca fuliginea [2], 98% in [3] and 100% in the assay with Sphaerotheca fuliginea [1]. In addition, the values for the inhibition at 50 µM in the assay with Fusarium graminearum (setting [4]) and in the assay on Fusarium graminearum (setting [5]) were 92% and 99%, respectively. The pest or weed control at 1000 ppm worked out at 90% with Rhynchosporium secalis and 100% in the assay with Septoria tritici.
As for `CCC(=O)Nc1cc(-c2cn(C(C)C)nc2-c2ccc(F)cc2)ccn1` [Compound 85], the pest or weed control at 250 ppm in the assay with Botrytis cinerea is 100%. Further, the pest or weed control at 500 ppm in the assay with Sphaerotheca fuliginea [2] and with Sphaerotheca fuliginea [1] was 100% throughout. In addition, the inhibition at 50 µM in the assay on Fusarium graminearum (setting [4]) came out at 100%; with Fusarium graminearum (setting [5]), 99%. In the assay on Septoria tritici, the pest or weed control at 1000 ppm was 100%.
For `CC(C)n1cc(-c2ccnc(NC(=O)C3CC3)c2)c(-c2ccc(F)cc2)n1` [Compound 86], in the assay with Alternaria brassicae, the “% Activity level” value is 75%. The pest or weed control at 250 ppm in the assay on Botrytis cinerea amounted to 100%. Besides, the pest or weed control at 500 ppm with Sphaerotheca fuliginea [2] stood at 100%; in assay [3], 94%; with Sphaerotheca fuliginea [1] it was 100%. Further, the inhibition at 50 µM was 94% with Fusarium graminearum (setting [4]) and 98% in the assay on Fusarium graminearum (setting [5]). Moreover, the pest or weed control at 1000 ppm is 86% in the assay on Rhynchosporium secalis and 100% with Septoria tritici.
